Calls of active or inactive are those of the source. No cut-off for these calls is given here.
Columns and labels:
[1] = target: T1, Tyrosine-protein kinase ABL1 (Homo sapiens, UniProt P00519); assay: Inhibition of human wild type ABL1 at 1 uM by qPCR analysis relative to control
[2] = target: Mitogen-activated protein kinase 14 (Homo sapiens, UniProt Q16539); assay: Inhibition of human wild type p38alpha at 1 uM by qPCR analysis
[3] = target: Ribosomal protein S6 kinase alpha-1 (Homo sapiens) (UniProt Q15418); assay: Inhibition of human wild type RSK1 at 1 uM by qPCR analysis
[4] = target: T2, Mitogen-activated protein kinase 8 (Homo sapiens, UniProt P45983); assay: Inhibition of human wild type JNK1 at 1 uM by qPCR analysis relative to control
T2 sequence (P45983 whole entry): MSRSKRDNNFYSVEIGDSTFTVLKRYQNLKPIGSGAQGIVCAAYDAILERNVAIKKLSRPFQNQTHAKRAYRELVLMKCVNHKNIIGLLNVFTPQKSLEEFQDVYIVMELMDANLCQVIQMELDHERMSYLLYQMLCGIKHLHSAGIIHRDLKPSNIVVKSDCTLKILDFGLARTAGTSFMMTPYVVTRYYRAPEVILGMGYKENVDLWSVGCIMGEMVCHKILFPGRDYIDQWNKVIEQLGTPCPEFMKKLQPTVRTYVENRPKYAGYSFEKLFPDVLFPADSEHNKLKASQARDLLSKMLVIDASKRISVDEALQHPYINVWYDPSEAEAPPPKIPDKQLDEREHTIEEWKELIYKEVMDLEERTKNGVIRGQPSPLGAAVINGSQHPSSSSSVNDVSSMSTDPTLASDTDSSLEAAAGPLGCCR

[5] = target: Mitogen-activated protein kinase 13 (Homo sapiens) (UniProt O15264); assay: Inhibition of human wild type p38d at 1 uM by qPCR analysis
Chain of Mitogen-activated protein kinase 13 (Homo sapiens) (O15264 whole entry): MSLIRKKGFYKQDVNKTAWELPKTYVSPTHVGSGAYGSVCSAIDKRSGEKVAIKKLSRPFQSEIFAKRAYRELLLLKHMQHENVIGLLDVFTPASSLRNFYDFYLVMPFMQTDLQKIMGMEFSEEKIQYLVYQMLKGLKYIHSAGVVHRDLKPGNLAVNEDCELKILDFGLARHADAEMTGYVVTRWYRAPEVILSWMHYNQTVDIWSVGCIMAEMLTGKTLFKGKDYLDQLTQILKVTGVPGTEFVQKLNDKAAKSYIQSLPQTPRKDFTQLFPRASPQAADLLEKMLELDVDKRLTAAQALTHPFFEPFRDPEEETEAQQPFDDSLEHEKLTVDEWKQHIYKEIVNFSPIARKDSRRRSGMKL

[6] = target: Mitogen-activated protein kinase 1 (Homo sapiens, UniProt P28482); assay: Inhibition of human wild type ERK2 at 1 uM by qPCR analysis
Chain of Mitogen-activated protein kinase 1 (P28482 whole entry): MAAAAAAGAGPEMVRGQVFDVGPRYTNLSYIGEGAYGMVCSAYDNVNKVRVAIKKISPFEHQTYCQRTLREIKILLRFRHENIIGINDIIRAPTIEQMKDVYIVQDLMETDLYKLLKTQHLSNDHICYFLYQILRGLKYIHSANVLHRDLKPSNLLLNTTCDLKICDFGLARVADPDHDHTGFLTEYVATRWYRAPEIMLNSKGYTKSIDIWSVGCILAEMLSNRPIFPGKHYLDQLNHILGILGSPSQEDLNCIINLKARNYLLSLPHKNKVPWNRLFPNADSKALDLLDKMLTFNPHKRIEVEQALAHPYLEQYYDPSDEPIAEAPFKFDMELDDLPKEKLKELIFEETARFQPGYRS

[7] = target: RAC-gamma serine/threonine-protein kinase (Homo sapiens) (UniProt Q9Y243); assay: Inhibition of human wild type AKT3 at 1 uM by qPCR analysis
[8] = target: Serine/threonine-protein kinase Sgk1 (Homo sapiens) (UniProt O00141); assay: Inhibition of human wild type SGK1 at 1 uM by qPCR analysis relative to control
[9] = target: Protein delta homolog 1 (Homo sapiens) (UniProt P80370); assay: Inhibition of human wild type DLK at 1 uM by qPCR analysis relative to control
[10] = target: Inhibitor of nuclear factor kappa-B kinase subunit beta (Homo sapiens) (UniProt O14920); assay: Inhibition of human wild type IKKbeta at 1 uM by qPCR analysis relative to control
[11] = target: Tyrosine-protein kinase receptor UFO (Homo sapiens) (UniProt P30530); assay: Inhibition of human wild type AXL at 1 uM by qPCR analysis relative to control
[12] = target: Mast/stem cell growth factor receptor Kit (Homo sapiens) (UniProt P10721); assay: Inhibition of human wild type KIT at 1 uM by qPCR analysis relative to control
[13] = target: Cyclin-dependent kinase-like 2 (Homo sapiens) (UniProt Q92772); assay: Inhibition of human wild type CDKL2 at 1 uM by qPCR analysis relative to control
Chain of Cyclin-dependent kinase-like 2 (Homo sapiens) (Q92772 whole entry): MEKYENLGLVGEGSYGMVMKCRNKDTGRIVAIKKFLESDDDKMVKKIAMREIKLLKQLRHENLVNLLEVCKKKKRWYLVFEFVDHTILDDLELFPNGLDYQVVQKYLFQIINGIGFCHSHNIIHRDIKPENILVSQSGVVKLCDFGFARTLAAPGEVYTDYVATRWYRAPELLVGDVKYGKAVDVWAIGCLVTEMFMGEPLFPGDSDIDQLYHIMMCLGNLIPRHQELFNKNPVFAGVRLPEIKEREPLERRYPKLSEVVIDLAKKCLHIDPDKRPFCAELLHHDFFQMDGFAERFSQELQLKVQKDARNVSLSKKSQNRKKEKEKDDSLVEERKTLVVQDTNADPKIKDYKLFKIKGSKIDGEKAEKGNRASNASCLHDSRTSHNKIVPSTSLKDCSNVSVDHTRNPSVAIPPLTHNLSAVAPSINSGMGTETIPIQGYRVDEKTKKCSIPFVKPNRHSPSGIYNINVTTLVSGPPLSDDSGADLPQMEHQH

[14] = target: Cyclin-dependent kinase 11B (Homo sapiens) (UniProt P21127); assay: Inhibition of human wild type CDK11 at 1 uM by qPCR analysis relative to control
[15] = target: T2, Mitogen-activated protein kinase 8
Description: Inhibition of wild type human JNK1 by high throughput [33P]-ATP radiolabeled assay

[16] = target: Leucine-rich repeat serine/threonine-protein kinase 2 (Homo sapiens, UniProt Q5S007)
Description: Inhibition of human wild type LRRK2 by qPCR analysis

[17] = target: T3, Receptor-type tyrosine-protein kinase FLT3 (Homo sapiens, UniProt P36888)
T3 sequence (P36888 whole entry): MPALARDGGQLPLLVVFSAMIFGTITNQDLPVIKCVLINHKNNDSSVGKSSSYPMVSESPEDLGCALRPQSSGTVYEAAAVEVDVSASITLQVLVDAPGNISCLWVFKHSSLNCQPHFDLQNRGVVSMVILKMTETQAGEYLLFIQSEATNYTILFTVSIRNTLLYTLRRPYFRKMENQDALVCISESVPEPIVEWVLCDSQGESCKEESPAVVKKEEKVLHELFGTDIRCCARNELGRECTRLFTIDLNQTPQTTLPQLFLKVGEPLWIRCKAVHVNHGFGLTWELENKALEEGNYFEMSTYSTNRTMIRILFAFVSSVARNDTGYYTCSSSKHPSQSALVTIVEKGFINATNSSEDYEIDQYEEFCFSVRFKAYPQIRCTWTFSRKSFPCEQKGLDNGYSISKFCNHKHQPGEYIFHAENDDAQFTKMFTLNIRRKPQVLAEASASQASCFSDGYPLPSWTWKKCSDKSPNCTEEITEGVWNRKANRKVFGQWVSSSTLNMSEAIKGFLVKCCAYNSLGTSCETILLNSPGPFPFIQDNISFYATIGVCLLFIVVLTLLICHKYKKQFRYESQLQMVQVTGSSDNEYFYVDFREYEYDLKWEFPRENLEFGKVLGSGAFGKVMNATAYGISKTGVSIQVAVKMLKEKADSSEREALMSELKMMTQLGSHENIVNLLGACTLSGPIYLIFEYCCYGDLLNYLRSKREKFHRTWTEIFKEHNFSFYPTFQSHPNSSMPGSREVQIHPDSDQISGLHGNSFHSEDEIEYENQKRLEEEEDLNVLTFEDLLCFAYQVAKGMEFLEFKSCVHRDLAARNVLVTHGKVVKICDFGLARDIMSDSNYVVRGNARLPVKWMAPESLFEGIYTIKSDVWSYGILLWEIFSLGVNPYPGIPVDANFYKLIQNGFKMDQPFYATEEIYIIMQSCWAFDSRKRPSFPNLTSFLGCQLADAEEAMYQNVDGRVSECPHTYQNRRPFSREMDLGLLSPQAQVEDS
Description: Inhibition of wild type human FLT3 by high throughput ATP-[33P] radiolabeled assay

[18] = target: T2, Mitogen-activated protein kinase 8; remark: listed apart in the source
Description: Inhibition of wild type human wild type JNK1 by qPCR analysis

[19] = target: T1, Tyrosine-protein kinase ABL1
Description: Inhibition of wild type human ABL1 by high throughput ATP-[33P] radiolabeled assay

[20] = target: High affinity nerve growth factor receptor (Homo sapiens, UniProt P04629)
Description: Inhibition of wild type human TRKA by high throughput ATP-[33P] radiolabeled assay

[21] = target: Tyrosine-protein kinase SYK (Homo sapiens, UniProt P43405)
Description: Inhibition of wild type human SYK by high throughput ATP-[33P] radiolabeled assay

[22] = target: T4, Rho-associated protein kinase 1 (Homo sapiens, UniProt Q13464)
Description: Inhibition of wild type human ROCK1 by high throughput ATP-[33P] radiolabeled assay

[23] = target: Tyrosine-protein kinase Lck (Homo sapiens, UniProt P06239)
Chain of Tyrosine-protein kinase Lck (P06239 whole entry): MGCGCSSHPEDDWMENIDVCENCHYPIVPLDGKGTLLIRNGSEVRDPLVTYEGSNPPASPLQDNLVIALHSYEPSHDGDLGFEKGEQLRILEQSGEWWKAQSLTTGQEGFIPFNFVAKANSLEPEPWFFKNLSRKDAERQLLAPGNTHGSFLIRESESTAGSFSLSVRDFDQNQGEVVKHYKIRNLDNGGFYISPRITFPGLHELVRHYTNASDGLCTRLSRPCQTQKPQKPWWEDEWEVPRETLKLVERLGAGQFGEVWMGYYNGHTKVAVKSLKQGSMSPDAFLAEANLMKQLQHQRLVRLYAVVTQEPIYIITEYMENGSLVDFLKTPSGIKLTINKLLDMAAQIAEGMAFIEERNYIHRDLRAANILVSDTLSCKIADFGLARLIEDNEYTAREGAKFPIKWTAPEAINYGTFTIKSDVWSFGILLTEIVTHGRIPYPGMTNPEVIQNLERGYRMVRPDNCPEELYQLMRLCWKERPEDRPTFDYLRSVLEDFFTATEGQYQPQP
Description: Inhibition of wild type human LCK by high throughput ATP-[33P] radiolabeled assay

[24] = target: Insulin-like growth factor 1 receptor (Homo sapiens, UniProt P08069)
Chain of Insulin-like growth factor 1 receptor (P08069 31-736 limits assumed): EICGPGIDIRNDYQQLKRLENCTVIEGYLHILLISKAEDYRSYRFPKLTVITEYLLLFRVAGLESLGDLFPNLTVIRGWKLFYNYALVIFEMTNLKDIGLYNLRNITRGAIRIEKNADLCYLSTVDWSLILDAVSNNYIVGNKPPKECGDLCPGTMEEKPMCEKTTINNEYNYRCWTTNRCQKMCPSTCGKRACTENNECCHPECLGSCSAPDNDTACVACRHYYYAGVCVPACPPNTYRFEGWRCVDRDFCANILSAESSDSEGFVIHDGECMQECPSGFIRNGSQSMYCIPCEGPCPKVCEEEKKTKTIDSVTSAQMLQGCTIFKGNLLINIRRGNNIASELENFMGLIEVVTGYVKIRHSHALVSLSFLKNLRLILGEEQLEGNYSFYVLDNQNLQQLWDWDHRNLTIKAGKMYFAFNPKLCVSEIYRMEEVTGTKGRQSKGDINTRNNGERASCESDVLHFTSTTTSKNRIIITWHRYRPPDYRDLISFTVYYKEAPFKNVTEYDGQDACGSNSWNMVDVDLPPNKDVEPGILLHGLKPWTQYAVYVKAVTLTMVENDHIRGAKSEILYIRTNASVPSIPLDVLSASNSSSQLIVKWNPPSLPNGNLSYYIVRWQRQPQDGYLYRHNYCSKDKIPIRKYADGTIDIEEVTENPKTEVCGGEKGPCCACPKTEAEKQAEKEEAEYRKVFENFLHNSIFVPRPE
Chain of Insulin-like growth factor 1 receptor (P08069 741-1367 limits assumed): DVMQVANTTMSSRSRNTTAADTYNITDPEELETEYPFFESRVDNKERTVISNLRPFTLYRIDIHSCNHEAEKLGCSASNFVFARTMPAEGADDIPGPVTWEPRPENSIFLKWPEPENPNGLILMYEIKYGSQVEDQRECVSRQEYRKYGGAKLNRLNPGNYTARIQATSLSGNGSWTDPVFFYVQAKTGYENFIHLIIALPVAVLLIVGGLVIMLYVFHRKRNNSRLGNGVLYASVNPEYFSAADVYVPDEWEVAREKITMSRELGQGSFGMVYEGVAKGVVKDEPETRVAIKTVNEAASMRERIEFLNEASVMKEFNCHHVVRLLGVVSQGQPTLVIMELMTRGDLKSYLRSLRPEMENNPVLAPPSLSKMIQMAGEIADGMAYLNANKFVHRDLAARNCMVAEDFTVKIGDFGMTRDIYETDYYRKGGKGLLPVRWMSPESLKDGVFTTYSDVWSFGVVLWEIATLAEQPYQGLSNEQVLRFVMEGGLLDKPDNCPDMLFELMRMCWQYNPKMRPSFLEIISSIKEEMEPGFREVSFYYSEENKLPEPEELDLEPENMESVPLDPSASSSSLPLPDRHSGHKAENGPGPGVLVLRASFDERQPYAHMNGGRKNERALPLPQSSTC
Description: Inhibition of wild type human IGF1R by high throughput ATP-[33P] radiolabeled assay

[25] = target: Vascular endothelial growth factor receptor 1 (Homo sapiens, UniProt P17948)
Description: Inhibition of wild type human FLT1 by high throughput ATP-[33P] radiolabeled assay

[26] = target: Aurora kinase A (Homo sapiens, UniProt O14965)
Description: Inhibition of wild type human Aurora kinase A by high throughput ATP-[33P] radiolabeled assay

[27] = target: Cytochrome P450 2C9 (Homo sapiens, UniProt P11712)
Description: Inhibition of CYP2C9 in human liver microsomes assessed as inhibition of midazolam metabolism by HPLC/MS analysis

[28] = target: Cytochrome P450 2D6 (Homo sapiens, UniProt P10635)
Description: Inhibition of CYP2D6 in human liver microsomes assessed as inhibition of diclofenac metabolism by HPLC/MS analysis

[29] = target: T4, Rho-associated protein kinase 1; settings: 1 uM
Description: Inhibition of human wild type ROCK1 at 1 uM by qPCR analysis relative to control

[30] = target: T3, Receptor-type tyrosine-protein kinase FLT3; assay: cell-based
Description: Inhibition of FLT3-L-stimulated wild type full length human FLT3 autophosphorylation expressed in MEF preincubated for 90 mins followed by FLT3-L stimulation measured after 5 mins by ELISA

T1 sequence (P00519 whole entry): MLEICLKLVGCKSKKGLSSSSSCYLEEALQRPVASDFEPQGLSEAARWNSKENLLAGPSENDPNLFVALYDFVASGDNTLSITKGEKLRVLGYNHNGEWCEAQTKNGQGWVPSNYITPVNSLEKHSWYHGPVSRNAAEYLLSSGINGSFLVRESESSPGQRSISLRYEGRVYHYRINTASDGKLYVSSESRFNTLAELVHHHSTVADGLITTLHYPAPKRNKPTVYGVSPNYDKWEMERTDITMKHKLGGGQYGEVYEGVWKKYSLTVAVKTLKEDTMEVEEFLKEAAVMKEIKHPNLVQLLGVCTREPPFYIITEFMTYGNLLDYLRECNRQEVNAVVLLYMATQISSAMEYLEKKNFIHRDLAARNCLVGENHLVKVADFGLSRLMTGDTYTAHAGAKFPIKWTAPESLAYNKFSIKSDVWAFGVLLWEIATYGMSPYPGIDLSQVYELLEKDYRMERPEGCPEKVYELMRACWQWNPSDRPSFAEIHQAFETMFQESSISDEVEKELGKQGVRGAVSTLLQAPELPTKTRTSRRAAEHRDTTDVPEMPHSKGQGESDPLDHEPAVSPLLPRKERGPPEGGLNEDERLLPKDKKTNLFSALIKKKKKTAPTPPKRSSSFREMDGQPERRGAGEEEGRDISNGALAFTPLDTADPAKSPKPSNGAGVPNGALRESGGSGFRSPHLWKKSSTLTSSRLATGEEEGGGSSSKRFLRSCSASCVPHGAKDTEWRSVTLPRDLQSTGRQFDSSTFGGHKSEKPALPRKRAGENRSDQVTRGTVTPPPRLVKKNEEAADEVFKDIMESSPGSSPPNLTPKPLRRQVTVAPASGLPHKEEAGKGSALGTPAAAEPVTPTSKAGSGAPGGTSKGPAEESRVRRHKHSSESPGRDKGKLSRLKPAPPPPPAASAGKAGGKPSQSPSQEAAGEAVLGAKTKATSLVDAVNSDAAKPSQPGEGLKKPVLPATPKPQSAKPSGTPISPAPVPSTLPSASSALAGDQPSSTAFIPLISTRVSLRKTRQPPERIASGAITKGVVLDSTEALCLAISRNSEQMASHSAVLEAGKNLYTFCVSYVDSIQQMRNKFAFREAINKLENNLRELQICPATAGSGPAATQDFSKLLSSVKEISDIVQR
Chain of Mitogen-activated protein kinase 14 (Q16539 whole entry): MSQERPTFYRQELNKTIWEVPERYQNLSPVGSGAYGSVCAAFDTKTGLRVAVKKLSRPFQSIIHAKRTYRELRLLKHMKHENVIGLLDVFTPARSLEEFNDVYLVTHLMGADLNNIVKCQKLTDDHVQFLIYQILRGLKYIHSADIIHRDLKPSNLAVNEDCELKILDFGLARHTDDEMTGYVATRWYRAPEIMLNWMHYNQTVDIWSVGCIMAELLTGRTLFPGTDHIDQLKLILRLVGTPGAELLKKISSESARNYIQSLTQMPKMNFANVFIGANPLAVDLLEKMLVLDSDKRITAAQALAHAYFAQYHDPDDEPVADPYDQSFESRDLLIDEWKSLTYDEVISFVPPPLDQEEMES

In the case of `CN1CCN(Cc2ccc(-c3cnc4[nH]cc(-c5ccc6[nH]ccc6c5)c4c3)cc2)CC1`, the inhibition [1] is reported as > 90%, the inhibition [2] is reported as “inactive” and the inhibition [3] is reported as “inactive”. For the same compound, the inhibition [4] was 99%, the inhibition [5] was “inactive” and the inhibition [6] was “inactive”. The inhibition [7] was “inactive”, the inhibition [8] was 70% and the inhibition [9] was 88%. The inhibition [10] was > 90%, the inhibition [11] was > 90% and the inhibition [12] was > 90%. For the same compound, the inhibition [13] was > 90%, the inhibition [14] was > 90% and the IC50 [15] was 3200 nM. It also gave an IC50 [16] of 11 nM, an IC50 [17] of 4 nM and an IC50 [18] of 3280 nM. It also gave an IC50 [19] of 6.8 nM, an IC50 [20] of 85 nM and an IC50 [21] of 731 nM. The IC50 [22] was 1030 nM, the IC50 [23] was 333 nM and the IC50 [24] was 307 nM. For the same compound, the IC50 [25] was 39 nM, the IC50 [26] was 108 nM and the IC50 [27] was > 30000 nM. For the same compound, the IC50 [28] was > 30000 nM, the inhibition [29] was > 90% and the IC50 [30] was 560 nM.
